One test deals with T1, ICE (IL-1β protease) (Homo sapiens, UniProt P29466).
T1 sequence (P29466 120-297 limits assumed): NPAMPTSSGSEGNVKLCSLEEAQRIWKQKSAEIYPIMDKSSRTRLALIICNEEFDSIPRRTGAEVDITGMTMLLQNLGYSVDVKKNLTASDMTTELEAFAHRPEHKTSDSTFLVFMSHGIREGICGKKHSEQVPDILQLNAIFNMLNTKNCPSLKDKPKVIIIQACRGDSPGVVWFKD
T1 sequence (P29466 317-404 limits assumed): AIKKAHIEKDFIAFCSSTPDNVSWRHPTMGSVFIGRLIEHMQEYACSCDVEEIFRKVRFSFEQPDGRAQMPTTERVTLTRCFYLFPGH
Nature of the test: enzyme assay, second order rates of inactivation of ICE. Format: biochemical. Conditions: in vitro; read-out: kobs/[I] (IL-1β protease inhibition, second order rate of inactivation). From the text: Second order rates of inactivation were obtained by using the enzyme assay described in Dolle, R. E.; et al., J. Med Chem. (1994), 37, 563. […] In the case of these reversible inhibitors, the in vitro assay was modified to obtain the reversible Ki * as follows: […]

The subject of test [1] is mature IL-1β release from human monocytes. Nature of the test: human monocyte pulse chase assay, inhibition of release of mature IL-1β (called In Vivo Assay). It is filed as cell-based. Conditions: human monocytes stimulated with fixed S. aureus. On the procedure:
In vivo inhibition (IC50) was determined as follows:
Human monocytes were isolated from heparinized leukopheresis units obtained through Biological Specialty Corporation (Lansdale, Pa.). Monocytes were purified by Ficoll-Hupaque (Pharmacia Fine Chemicals, Piscataway, N.J.) gradient centrifugation and more than 95% pure monocyte populations obtained by centrifugal elutriation. The assay was performed on duplicate samples of freshly isolated human monocytes, cultured in suspension at 37° C. and rotated gently in conical bottom polypropylene tubes (Sardstedt Inc., Princeton, N.J.). Human monocytes at a concentration of 5×10^6 cells/mL were resuspended in 1 mL of RPMI 1640 (a common tissue buffer from M. A. Bioproducts, Walkersville, Md.) containing 1% fetal calf serum (FCS) (HyClone, Logan, Utah) and 50 μg/mL gentamycin (Gibco, Grand Island, N.Y.). The cells were treated either with a compound of the invention (i.e. test compound) or with a non-inhibitor (control compound, typically 0.03% DMSO) for 15 minutes and then activated with 0.01% fixed Staphylococcus aureus (The Enzyme Center, Malden, Mass.) for 1 hour. The cells were then centrifuged and resuspended in 1 mL of cysteine, methionine-free RPMI media containing 1% dialyzed FCS (Hyclone). The cells were pretreated with a test compound or control compound for 15 minutes after which 0.01% fixed S. aureus plus 100 μCi Tran 35-S label (ICN, Irvine, Calif.) was added and the cells incubated at 37° C. for 1 hour. After incubation, cells were centrifuged, washed once in phosphate buffer saline and resuspended in 1 mL RPMI containing 1% fetal calf serum. The cells were again pretreated with a test or control compound for 15 minutes and then 0.01% S. aureus for 2 hours. At the end of the incubation, cells were centrifuged and supernates saved for immunoprecipitation. Cells were washed once in phosphate buffer saline and then lysed in RIPA, a continuous cell media buffer containing 2 mM phenylmethylsulfonyl fluoride, 10 mM iodoacetate, 1 μg/mL pepstatin A, 1 μg/mL leupeptin and 0.5 TIU aprotinin.
For the immunoprecipitations, an equal volume of 1% dry milk in RIPA buffer plus 50 μL of resuspended protein A sepharose CL-4B (Pharmacia, Piscataway, N.Y.) was added to supernates and 1 mL of 4% dry milk containing protein A sepharose CL-4B to cell lysates and samples rotated for 30 minutes at 4° C. Beads were then centrifuged down, samples transferred to fresh tubes and incubated overnight with 40 μg rabbit anti-human IL-1β polyclonal antibody (Genzyme, Cambridge, Mass.). The IL-1β proteins were then precipitated with 70 μL protein A sepharose, resuspended in 60 μL SDS sample buffer and run on 15% SGD-PAGE gels. Autoradiography was performed on dried gels and the amount of radioactivity (counts per minute, cpm) quantitated using a Betascope 603 analyzer.
In the monocyte pulse chase assay, each test parameter was run in duplicate. Data was collected from the Beta Scope using a personal computer, then transferred to the VAX system for calculation of mean cpm and standard deviation of the mean. When test compounds were evaluated, the percent inhibition of release of mature IL-1β was calculated as follows:
100×[1-(cells treated with stimuli+test compound-unstimulated cells)/(cells treated with stimuli+control compound-unstimulated cells)]
These % inhibition values were then used to calculate IC50 value for each compound. Since the human monocyte pulse chase assay uses primary cells from different donors, each test compound was run in 2-3 separate experiments, using monocytes from 2-3 different donors.

Structures are written as SMILES. pIC50: −log10 of the molar value.

The pIC50 is −log10 of the IC50, conventionally taken in molar units. A higher pIC50 goes with a small IC50. `CN(C)Cc1ccc(C(=O)N[C@H]2CCC(=O)N3CCC[C@@H](C(=O)N[C@@H](CC(=O)O)C(=O)COc4cc(C(F)(F)F)nn4-c4ccc(Cl)cc4)N3C2=O)cc1` [Example 1]: the kinact/KI at ICE (IL-1β protease) was over 10000 M⁻¹ s⁻¹. In test [1], this compound gave a pIC50 of over 5.00.
For `O=C(O)C[C@H](NC(=O)[C@@H]1CCCN2C(=O)CC[C@H](NC(=O)OCc3ccccc3)C(=O)N12)C(=O)COC(=O)c1c(Cl)cccc1Cl` [Example 3] the same measures were over 10000 M⁻¹ s⁻¹ and over 5.00.
In the same order, the values of `O=C(O)C[C@H](NC(=O)[C@@H]1CCCN2C(=O)CC[C@H](NC(=O)OCc3ccccc3)C(=O)N12)C(=O)COc1cc(C(F)(F)F)nn1-c1ccccc1` [Example 4] are over 10000 M⁻¹ s⁻¹ and over 5.00.
For `O=C(O)C[C@H](NC(=O)[C@@H]1CCCN2C(=O)CC[C@H](NC(=O)OCc3ccccc3)C(=O)N12)C(=O)COc1cc(C(F)(F)F)nn1-c1ccc(Cl)cc1` [Example 5] the same measures were over 10000 M⁻¹ s⁻¹ and over 5.00.
Regarding `O=C(O)C[C@H](NC(=O)[C@@H]1CCCN2C(=O)CC[C@H](NC(=O)OCc3ccccc3)C(=O)N12)C(=O)COc1cc(C(F)(F)F)nn1-c1ccccn1` [Example 6], the kinact/KI on ICE (IL-1β protease) is over 10000 M⁻¹ s⁻¹. For the same compound, the pIC50 in test [1] was over 5.00.
As to `O=C(O)C[C@H](NC(=O)[C@@H]1CCCN2C(=O)CC[C@H](NC(=O)c3ccccc3)C(=O)N12)C(=O)COc1cc(C(F)(F)F)nn1-c1ccc(Cl)cc1` [Example 7], the kinact/KI at ICE (IL-1β protease) is over 10000 M⁻¹ s⁻¹. In test [1], the pIC50 is over 5.00.
`O=C(O)CSc1ccc(C(=O)N[C@H]2CCC(=O)N3CCC[C@@H](C(=O)N[C@@H](CC(=O)O)C(=O)COc4cc(C(F)(F)F)nn4-c4ccc(Cl)cc4)N3C2=O)cc1` [Example 8]: the kinact/KI at ICE (IL-1β protease) is over 10000 M⁻¹ s⁻¹. Further, in test [1], the pIC50 is over 5.00.
Consider `O=C(O)CCSc1ccc(C(=O)N[C@H]2CCC(=O)N3CCC[C@@H](C(=O)N[C@@H](CC(=O)O)C(=O)COc4cc(C(F)(F)F)nn4-c4ccc(Cl)cc4)N3C2=O)cc1` [Example 9], for which the kinact/KI on ICE (IL-1β protease) was over 10000 M⁻¹ s⁻¹. In addition, the pIC50 in test [1] was over 5.00.
Turning to `CC(C)COC(=O)N[C@H]1CCC(=O)N2CCC[C@@H](C(=O)N[C@@H](CC(=O)O)C(=O)COc3cc(C(F)(F)F)nn3-c3ccc(Cl)cc3)N2C1=O` [Example 10], the kinact/KI on ICE (IL-1β protease) is over 10000 M⁻¹ s⁻¹. In test [1], this compound had a pIC50 of over 5.00.
For `CN(C)Cc1ccc(C(=O)N[C@H]2CCC(=O)N3CCC[C@@H](C(=O)N[C@@H](CC(=O)O)C(=O)COC(=O)c4c(Cl)cccc4Cl)N3C2=O)cc1` [Example 11] the same measures were over 10000 M⁻¹ s⁻¹ and over 5.00.
For `O=C(O)CCc1ccc(C(=O)N[C@H]2CCC(=O)N3CCC[C@@H](C(=O)N[C@@H](CC(=O)O)C(=O)COc4cc(C(F)(F)F)nn4-c4ccc(Cl)cc4)N3C2=O)cc1` [Example 12] the same measures were over 10000 M⁻¹ s⁻¹ and over 5.00.
In the same order, the values of `O=C(O)C[C@H](NC(=O)[C@@H]1CCCN2C(=O)CC[C@H](NC(=O)c3ccc(CN4CCOCC4)cc3)C(=O)N12)C(=O)COC(=O)c1c(Cl)cccc1Cl` [Example 13, [9-(4-(N-Morpholinomethyl)benzoylamino)octahydro-6,10-dioxo-6H-pyridazino[1 ,2a][1,2]diazepine-1-formoyl]-L-aspartic acid 2,6-dichlorobenzoyloxymethyl ketone] are over 10000 M⁻¹ s⁻¹ and over 5.00.
Take `CN1CCN(Cc2ccc(C(=O)N[C@H]3CCC(=O)N4CCC[C@@H](C(=O)N[C@@H](CC(=O)O)C(=O)COC(=O)c5c(Cl)cccc5Cl)N4C3=O)cc2)CC1` [Example 14, [9-(N-[4-(N-Methylpiperazino)methyl]benzoylamino)octahydro-6,10-dioxo-6H-pyridazino [1,2a][1,2]diazepine-1-formoyl]-L-aspartic acid 2,6-dichlorobenzoyloxymethyl ketone]: the kinact/KI at ICE (IL-1β protease) was over 10000 M⁻¹ s⁻¹. In test [1], this compound had a pIC50 of over 5.00.
In the same order, the values of `Cc1nccn1Cc1ccc(C(=O)N[C@H]2CCC(=O)N3CCC[C@@H](C(=O)N[C@@H](CC(=O)O)C(=O)COC(=O)c4c(Cl)cccc4Cl)N3C2=O)cc1` [Example 15, [9-(4-(N-(2-Methyl)imidazolylmethyl)benzoylamino)octahydro-6,10-dioxo-6H-pyridazino[1,2a][1,2]diazepine-1-formoyl]-L-aspartic acid 2,6-dichlorobenzoyloxymethyl ketone] are over 10000 M⁻¹ s⁻¹ and over 5.00.
In the same order, the values of `O=C(O)C[C@H](NC(=O)[C@@H]1CCCN2C(=O)CC[C@H](NC(=O)c3ccc4[nH]cnc4c3)C(=O)N12)C(=O)COC(=O)c1c(Cl)cccc1Cl` [Example 16, [9-(5-Benzimidazoylamino)octahydro-6,10-dioxo-6H-pyridazino[1,2a][1,2]diazepine-1-formoyl]-L-aspartic acid 2,6-dichlorobenzoyloxymethyl ketone] are over 10000 M⁻¹ s⁻¹ and over 5.00.
In the same order, the values of `O=C(O)C[C@H](NC(=O)[C@@H]1CCCN2C(=O)CC[C@H](NC(=O)c3ccc4[nH]nnc4c3)C(=O)N12)C(=O)COC(=O)c1c(Cl)cccc1Cl` [Example 17, [9-(5-Bentriazoylamino)octahydro-6,10-dioxo-6H-pyridazino[1,2a][1,2]diazepine-1-formoyl]-L-aspartic acid 2,6-dichlorobenzoyloxymethyl ketone] are over 10000 M⁻¹ s⁻¹ and over 5.00.
In the case of `CCOC(=O)n1nnc2cc(C(=O)N[C@H]3CCC(=O)N4CCC[C@@H](C(=O)N[C@@H](CC(=O)O)C(=O)COC(=O)c5c(Cl)cccc5Cl)N4C3=O)ccc21` [Example 18, [9-(N-Carboethoxy-5-bentriazoylamino)octahydro-6,10-dioxo-6H-pyridazino[1,2 a][1,2]diazepine-1-formoyl]-L-aspartic acid 2,6-dichlorobenzoyloxymethyl ketone], the kinact/KI at ICE (IL-1β protease) is over 10000 M⁻¹ s⁻¹. The same compound gave a pIC50 in test [1] of over 5.00.
For `CCOC(=O)n1cnc2cc(C(=O)N[C@H]3CCC(=O)N4CCC[C@@H](C(=O)N[C@@H](CC(=O)O)C(=O)COC(=O)c5c(Cl)cccc5Cl)N4C3=O)ccc21` [Example 19, [9-(N-Carboethoxy-5-benzimidazoylamino)octahydro-6,10-dioxo-6H-pyridazino[1 ,2a][1,2]diazepine-1-formoyl]-L-aspartic acid 2,6-dichlorobenzoyloxymethyl ketone] the same measures were over 10000 M⁻¹ s⁻¹ and over 5.00.
For `O=C(O)CCCc1ccc(C(=O)N[C@H]2CCC(=O)N3CCC[C@@H](C(=O)N[C@@H](CC(=O)O)C(=O)COc4cc(C(F)(F)F)nn4-c4ccc(Cl)cc4)N3C2=O)cc1` [Example 20] the same measures were over 10000 M⁻¹ s⁻¹ and over 5.00.
With `O=C(O)C[C@H](NC(=O)[C@@H]1CCCN2CCC[C@H](NC(=O)OCc3ccccc3)C(=O)N12)C(=O)COC(=O)c1c(Cl)cccc1Cl` [Example 23], the kinact/KI on ICE (IL-1β protease) was over 10000 M⁻¹ s⁻¹. This compound had a pIC50 in test [1] of over 5.00.
For `O=C(O)C[C@H](NC(=O)[C@@H]1CCCN2C(=O)CC[C@H](NC(=O)OCc3ccccc3)C(=O)N12)C(=O)COc1cc(C(F)(F)F)nn1-c1ccc(Cl)cn1` [Example 24] the same measures were over 10000 M⁻¹ s⁻¹ and over 5.00.
In the same order, the values of `CN(C)Cc1ccc(C(=O)N[C@H]2CCC(=O)N3CCC[C@@H](C(=O)N[C@@H](CC(=O)O)C(=O)COc4cc(C(F)(F)F)nn4-c4ccccn4)N3C2=O)cc1` [Example 25] are over 10000 M⁻¹ s⁻¹ and over 5.00.

The values are drawn from patent publication US5639745A, “Fused-bicyclic lactams as interleukin-1β converting enzyme inhibitors” (Sanofi, priority 1995, dated 1997).
